Reference: US20240092837A1, “Novel Peptide Carrier Compositions” (The Regents of the University of Colorado, A Body Corporate, priority 2021, published 2024)

System: ARPE-19 cells
Experiment: Intracellular uptake of FITC labeled TAT and PHHP 1 peptides in ARPE-19 cells (fluorometry)
Format: cell-based, human
Settings: 10 and 5 μM
Description: FIG. 9 are graphs of quantitation of in vitro cell uptake study of FITC labeled PHIP (P 1) and TAT peptides in ARPE-19 cells. Cells were grown to a 10,000 well density in 96 well fluorescent imaging plates with a transparent bottom. The ARPE-19 cells required an additional 48 hrs, to reach this cell density. Cells were incubated with 200 μl of 10 and 5 μM/ml FITC labeled PHHP (P 1) and TAT peptides and uptake was continued for 1 hour at 37° C. Following uptake; cells were washed three times with acidic PBS (pH 5.0) and normal PBS (pH 7.4) at 37° C. Cells were lysed using 0.1 M NaOH and quantified using a fluorometry method. Panel A illustrates uptake of peptides by ARPE-19 cells and absolute amount, and panel B illustrates the percentage uptake of peptides at different concentrations.
The cell uptake study of FITC labeled PHHP peptides in an ARPE-19 cell line was studied using fluorometry. ARPE —19 cells were grown in a DMEM/F12 medium. A cell density of 10,000 cells was plated into a 96 well plate for each cell lines, 48 hours before the start of the uptake study. […] All the samples were brought to room temperature and fluorescence spectra were recorded at an excitation wavelength of 493 nm and emission wavelength of 520 nm. The percentage uptake and absolute uptake were determined for each peptide at different concentrations and plotted as a bar graph for comparative analyses in FIG. 3.
Intracellular uptake of TAT and PHHP 1 peptides in ARPE-19 cells. […] All the samples were then brought to room temperature and fluorescence intensities were recorded at an excitation wavelength of 493 nm and emission wavelength of 520 nm.
Percentage uptake and statistical analyses at different concentrations were compared. […] The percentage uptake of the PHHP 1 peptide was determined to be ˜15-17, whereas ˜3-4% for TAT peptide. […] Furthermore, these proteins in their PHHP 1 tagged and un-tagged forms were evaluated for intracellular uptake properties in ARPE-19, A549, and hCET cells lines and for transcellular migration behavior across bovine and rabbit eyes cornea following topical dosing (FIG. 9).

## PHHP 1: positive, helical, hydrophobic peptide variant, sequence WWFWIWFWWGPGRRKRRKRRR [SEQ ID 1] (Sequence is synthesized)
1 hour uptake at 37° C.
  fold improvement in the uptake relative to the TAT peptide: 4-7 fold
FITC labeled peptide, 1 hour
  uptake behavior (percentage uptake versus concentration): concentration dependence
FITC labeled peptide, 1 hour uptake at 37° C.
  percentage uptake: 15-17%
